According to ChEMBL document CHEMBL5614427, “Discovery and Optimization of N-Heteroaryl Indazole LRRK2 Inhibitors” (J Med Chem, 2024):

Legend:
[1] = Lipophilicity, logD of compound at pH 7 by shake flask based HPLC method; type: physicochemical; conditions: buffer
[2] = Mean residence time in Wistar Han rat at 0.1 mg/kg, iv administered as cassette dosing measured upto 24 hrs by LC-MS/MS analysis; type: ADME, organism-based; conditions: in vivo
[3] = Ratio of unbound brain to plasma drug concentration in Wistar Han rat; type: ADME, cell-free; conditions: read-out: K(p,uu,brain)
[4] = Oral bioavailability in Beagle dog at 0.5 mg/kg measured upto 24 hrs by LC-MS/MS analysis; type: ADME, organism-based, Canis lupus familiaris; conditions: in vivo
[5] = Mean residence time in Beagle dog at 0.25 mg/kg, iv measured upto 24 hrs by LC-MS/MS analysis; type: ADME, organism-based, Canis lupus familiaris; conditions: in vivo
[6] = Oral bioavailability in Wistar Han rat at 1 mg/kg measured upto 24 hrs by LC-MS/MS analysis; type: ADME, organism-based; conditions: in vivo
[7] = AUC in rat at 100 mg/kg, po BID; type: ADME, organism-based; conditions: in vivo
[8] = Mean residence time in Wistar Han rat at 2 mg/kg, iv measured upto 24 hrs by LC-MS/MS analysis; type: ADME, organism-based; conditions: in vivo
[9] = Oral bioavailability in Wistar Han rat at 10 mg/kg measured upto 24 hrs by LC-MS/MS analysis; type: ADME, organism-based; conditions: in vivo
[10] = Ratio of unbound brain to plasma drug concentration in rhesus monkey; type: ADME, cell-free, Macaca mulatta; conditions: read-out: K(p,uu,brain)
[11] = Ratio of unbound CSF to plasma drug concentration in rhesus monkey; type: ADME, Macaca mulatta

| SMILES | logD [1] | MRT [2] | other results |
| --- | --- | --- | --- |
| CCn1cc(-n2ncc3cc(Cl)c(C4CCN(C5(C)COC5)CC4)cc32)cn1 | 3.2 | 4 h | – |
| CO[C@@H]1CCN(c2cc(-n3ncc4ccc([C@]5(C)CC56CC6)cc43)ncn2)C1 | – | 1 h | – |
| Cn1cc(-n2ncc3cc(Cl)c(C4CCN(C5(C)COC5)CC4)cc32)cn1 | 2.8 | 3.4 h | – |
| Cc1nc(-n2ncc3ccc([C@]4(C#N)CC45CC5)cc32)cs1 | – | 0.8 h | Kp uu [3]: 0.5 |
| CC1(N2CCC(c3cc4c(cnn4-c4cnn(C5CC5)c4)cc3Cl)CC2)COC1 | 3.4 | 3.6 h | – |
| CC1(N2CCC(c3cc4c(cnn4-c4cnn(C(F)F)c4)cc3Cl)CC2)COC1 | 3.7 | 3.5 h | – |
| COCC12CC(n3cc(-n4ncc5cc(Cl)c(N6CCN(C7(C)COC7)CC6)cc54)cn3)(C1)C2 | – | 2.2 h | – |
| CC1(N2CCN(c3cc4c(cnn4-c4cnn(-c5ncc(F)cn5)c4)cc3Cl)CC2)COC1 | 2.8 | 4.5 h | bioavailability [4]: 47%; MRT [5]: 17 h; bioavailability [6]: 88% |
| CC1(N2CCN(c3cc4c(cnn4-c4cnn(C56CC(C(F)F)(C5)C6)c4)cc3Cl)CC2)COC1 | – | 2.7 h | – |
| C[C@@]1(N2CCN(c3cc4c(cnn4-c4cnn(C56CC(C5)C6)c4)cc3Cl)CC2)COC[C@@H]1O | – | – | AUC [7]: 101 µM·h; Kp uu [3]: 0.4; MRT [8]: 5.8 h; MRT [5]: 12 h; bioavailability [9]: 48% |
| Cc1cc(-n2ncc3ccc([C@]4(C#N)CC45CC5)cc32)nc(C)n1 | – | 1 h | Kp uu [3]: 0.19 |
| CC1(N2CCN(c3cc4c(cnn4-c4cnn(C56CC(C#N)(C5)C6)c4)cc3Cl)CC2)COC1 | – | 2.9 h | – |
| CO[C@H]1C[C@H](n2cc(-n3ncc4cc(Cl)c(C5CCN(C6(C)COC6)CC5)cc43)cn2)C1 | 3.5 | 4.1 h | – |
| CC1(N2CCN(c3cc4c(cnn4-c4cnn(C56CC(C5)C6)c4)cc3Cl)CC2)COC1 | – | 3.4 h | – |
| CC1(N2CCC(c3cc4c(cnn4-c4cnn(-c5ncc(F)cn5)c4)cc3Cl)CC2)COC1 | 3.3 | 3.3 h | – |
| Cn1ccc(-n2ncc3ccc([C@]4(C#N)CC45CC5)cc32)n1 | – | 0.8 h | Kp uu [3]: 1 |
| Cn1cc(-n2ncc3cc(Cl)c(C4CCN(C5COC5)CC4)cc32)cn1 | – | 2.1 h | Kp uu [3]: 0.4; Kp uu [10]: 0.9; bioavailability [4]: 59%; MRT [5]: 2.1 h; Kp uu [11]: 1; bioavailability [6]: 77% |
| COC12CC(n3cc(-n4ncc5cc(Cl)c(N6CCN(C7(C)COC7)CC6)cc54)cn3)(C1)C2 | – | 3.2 h | – |
| CC1(N2CCN(c3cc4c(cnn4-c4cnn(C5CC5)c4)cc3Cl)CC2)CCOC1 (stereo not given) | – | 3.2 h | – |
| C[C@@]1(N2CCN(c3cc4c(cnn4-c4cnn(C5CC5)c4)cc3Cl)CC2)COC[C@@H]1O | – | 2.5 h | – |
| Cn1ccc(-n2ncc3cc(Cl)c(C4CCN(C5COC5)CC4)cc32)n1 | – | 1.5 h | – |
| CC1(N2CCN(c3cc4c(cnn4-c4cnn(C5CC5)c4)cc3Cl)CC2)COC1 | – | 2.8 h | – |
